From US8759536B2, “Rhodanine derivatives, method for preparing same, and pharmaceutical composition for the prevention or treatment of aids containing the rhodanine derivatives as active ingredients” (Avixgen Inc., priority 2010, dated 2014)

These molecules were tested on HIV (assay: Assay for inhibitory activity against HIV (p24 ELISA, infected MT-4 cells)). Details: Human immunodeficiency virus 1, MT4; MT-4 cells infected with pNL4-3-derived HIV; p24 ELISA after 48 + 48 hrs; read-out: Conc. for Inhibition of HIV Activity (IC50).
Assay type: cell-based
Description: The rhodanine derivatives of the present invention were assayed for inhibitory activity against HIV as follows.
A pNL4-3 vector carrying an HIV genome was transduced into 293FT cells. […] 293FT cells were seeded at a density of 3.0×10^5 cells/well into 6-well plates containing antibiotic-free DMEM supplemented with 10% FBS and grown for 48 hrs. Upon 90-95% confluency, the transduction was performed.
The DNA (pNL4-3) was added at a final concentration of 10 ng/mL to 250 μL of the reduced serum medium Opti-MEM I (GIBCO™, USA). Separately, 4 μL of Lipofectamine™ 2000 (Invitrogen, USA) was mixed with 250 μL of Opti-MEM I (GIBCO™), and incubated at room temperature for 5 min. The DNA (pNL4-3) was mixed at a ratio of 1:2 with the lipofectamine and reacted at room temperature for 20 min to form a DNA-lipofectamine complex. After removal of the medium from the cell culture, the mixture containing the DNA-lipofectamine complex was added to the cells and incubated for 4 hrs in a CO2 incubator. Then, the cell culture medium was replaced with a fresh antibiotic-free, 10% FBS-supplemented DMEM, followed by incubation for an additional 48 hrs. The HIV-infected cell culture was centrifuged at 1,500 rpm for 5 min to give a virus supernatant.
MT-4 cells were plated at a density of 1.0×10^6 cells/mL into 6-well plates containing RPMI supplemented with 10% FBS and incubated for 4 hrs before infection at a ratio of 1:1 with the virus supernatant. The cells were incubated for 48 hrs in a CO2 incubator, after which the culture medium was replaced with a fresh one. Again, incubation was continued for an additional 72 hrs to amplify the virus. After centrifugation at 1,500 rpm for 5 min, the virus supernatant thus obtained was examined for virus density using a Virononstika HIV-1 Antigen Microelisa system kit (bioMerieux, Inc. Netherland).
2. Assay for Inhibitory Activity Against HIV
The rhodanine derivatives prepared in Examples 1 to 38 were dissolved in DMSO to prepare respective 10 mM or 20 mM stocks, and stored at −20° C. The stocks were diluted to a starting concentration of 200 μM in DMSO before use in experiments.
MT-4 cells were suspended at a density of 4×10^5 cells in 200 μL of RPMI 1640 (Gibco, 10% FBS) per well of 24-well plates, and infected with 200 μL of a virus supernatant containing 2×10^5 pg/mL to give a total volume of 400 μL. After the stocks of the rhodanine derivatives were […] diluted to 200 μM in DMSO, 2 μL of each dilution was added to the cells to a final concentration of 1 μM or less. For a positive control, 10 μM AZT (azidothymidine, Sigma, USA) was used at a final concentration of 50 nM while DMSO was used at a final concentration of 0.5% as a negative control. The cells were cultured for 48 hrs in a CO2 incubator (37° C., 5% CO2), and the culture medium was replaced by RPMI 1640 containing the rhodanine derivative at a final concentration of 1 μM, followed by incubation for an additional 48 hrs. Virus soups were separated from cells by centrifugation at 1,500 rpm for 5 min and then at 13, 000 rpm for 5 min. ELISA for p24 concentrations was carried out using a Virononstika HIV-1 Antigen Microelisa system kit (bioMerieux, Inc. Netherland) to determine the inhibitory activity of each of the rhodanine derivatives against HIV.
In the case of `CCCOC(=O)c1cc(-c2ccc(/C=C3/SC(=S)NC3=O)o2)ccc1Cl` [Example 29, 2-chloro-5-[5-(4-oxo-2-thioxo-thiazolidin-5-ylidenemethyl)-furan-2-yl]-benzoic acid propyl ester], the IC50 is reported as 500 nM.
Work on `O=C1C(=Cc2ccc(-c3cc([N+](=O)[O-])ccc3Br)o2)SC(=S)N1c1ccc(I)cc1` [Example 16, 5-[5-(2-bromo-5-nitro-phenyl)-furan-2-ylmethylene]-3-(4-iodo-phenyl)-2-thioxo-thiazolidin-4-one] yielded an IC50 of 500 nM.
Work on `COc1ccc(-c2ccc(/C=C3\SC(=S)N(CC(=O)O)C3=O)o2)c([N+](=O)[O-])c1` [Example 21, {5-[5-(4-methoxy-2-nitro-phenyl)-furan-2-ylmethylene]-4-oxo-2-thioxo-thiazolidin-3-yl}-acetic acid] yielded an IC50 of 1000 nM.
With `O=C1C(=Cc2ccc(-c3ccc([N+](=O)[O-])cc3)o2)SC(=S)N1c1cccc(F)c1` [Example 13, 3-(3-fluoro-phenyl)-5-[5-(4-nitro-phenyl)-furan-2-ylmethylene]-2-thioxo-thiazolidin-4-one] the IC50 was 500 nM.
`CC(C)OC(=O)c1ccc(-c2ccc(/C=C3/SC(=S)NC3=O)o2)cc1` [Example 23, 4-[5-(4-oxo-2-thioxo-thiazolidin-5-ylidenemethyl)-furan-2-yl]-benzoic acid isopropylester] showed an IC50 of 400 nM.
`Cc1ccc(N2C(=O)/C(=C/c3ccc(-c4cccc([N+](=O)[O-])c4)o3)SC2=S)c(C)c1` [Example 1, 3-(2,4-Dimethyl-phenyl)-5-[5-(3-nitro-phenyl)-furan-2-ylmethylene]-2-thioxo-thiazolidin-4-one] was tested, and the IC50 was 800 nM.
`CC(=O)CCN1C(=O)/C(=C/c2ccc(-c3ccc(Br)cc3)o2)SC1=S` [Example 5, 5-[5-(4-bromo-phenyl)-furan-2-ylmethylene]-3-(3-oxo-butyl)-2-thioxo-thiazolidin-4-one] was tested, and the IC50 was 1000 nM.
Molecule `O=C(O)CN1C(=O)/C(=C/c2ccc(-c3cccc([N+](=O)[O-])c3)o2)SC1=S` [Example 38, {5-[5-(3-nitro-phenyl)-furan-2-ylmethylene]-4-oxo-2-thioxo-thiazolidin-3-yl}-acetic acid] has an IC50 of 750 nM.
`O=C1/C(=C/c2ccc(-c3ccc(Cl)cc3Cl)o2)SC(=S)N1c1cccc(F)c1` [Example 8, 5-[5-(2,4-dichloro-phenyl)-furan-2-ylmethylene]-3-(3-fluoro-phenyl)-2-thioxo-thiazolidin-4-one] showed an IC50 of 500 nM.
